The subject of one assay is Utrophin A promoter linked to a luciferase reporter gene. Put plainly: Luciferase reporter assay (murine H2K cells). It counts as cell-based. The following applies: Mus musculus, H2K mdx, luciferase level relative to control; H2K/mdx/Utro A reporter cells; compound 10 μM final concentration; read-out: Activity. Summed up:
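Compound at 10 μM final was applied for 48 hrs to plated H2K mdx myoblasts (33° C, 10% CO2, interferon-containing medium) bearing a luciferase gene under the utrophin A promoter. Luminescence from lysed cells served as read-out.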
Take `CCCc1ccc2oc(-c3cccc(C(=O)O)c3)nc2c1` [Example 80, 3-(5-propylbenzo[d]oxazol-2-yl)benzoic acid]: the activity at 10 µM is less than 200%. Turning to `CCCC(=O)Nc1ccc2oc(-c3ccc(OC)cc3)nc2c1` [Example 137, N-(2-(4-methoxyphenyl)benzo[d]oxazol-5-yl)butyramide], the activity at 10 µM was 201 to 300%.

For the compound `CCN(CC)c1ccc(-c2nc3cc(NC(=O)c4ccc(C(F)(F)F)cc4)ccc3o2)cc1` [Example 69, N-(2-(4-(diethylamino)phenyl)benzo[d]oxazol-5-yl)-4-(trifluoromethyl)benzamide], the activity at 10 µM was less than 200%. With `Nc1ccc(-c2nc3cc(-c4ccc(Cl)cc4)ccc3o2)cc1` [Example 356, 4-(5-(4-chlorophenyl)benzo[d]oxazol-2-yl)aniline], the activity at 10 µM was less than 200%. For `O=C(Nc1ccc2oc(-c3ccccc3)nc2c1)c1ccc2ccccc2c1` [Example 36, N-(2-phenylbenzo[d]oxazol-5-yl)-2-naphthamide], the activity at 10 µM is less than 200%. On to `O=C(Nc1ccc2oc(-c3ccc(Cl)cc3)nc2c1)c1ccccc1` [Example 88, N-(2-(4-chlorophenyl)benzo[d]oxazol-5-yl)benzamide], for which the activity at 10 µM was less than 200%. Turning to `CCOC(=O)Nc1ccc2oc(-c3ccc(Cl)cc3)nc2c1` [Example 386, ethyl 2-(4-chlorophenyl)benzo[d]oxazol-5-ylcarbamate], the activity at 10 µM was less than 200%. On to `O=[N+]([O-])c1cnc2oc(-c3ccccc3)nc2c1` [Example 153, 6-nitro-2-phenyloxazolo[5,4-b]pyridine], for which the activity at 10 µM was less than 200%. For `O=C(Nc1ccc2oc(-c3ccccc3)nc2c1)c1ccc(F)cc1` [Example 31, 4-fluoro-N-(2-phenylbenzo[d]oxazol-5-yl)benzamide], the activity at 10 µM was less than 200%.

With `CCS(=O)(=O)c1ccc2oc(-c3ccc(-c4ccccc4)cc3)nc2c1` [Example 426, 2-(biphenyl-4-yl)-5-(ethylsulfonyl)benzo[d]oxazole], the activity at 10 µM was less than 200%. Consider `CC(C)NC(=S)c1ccc2oc(-c3ccc(Cl)cc3)nc2c1` [Example 274, 2-(4-chlorophenyl)-N-isopropylbenzo[d]oxazole-5-carbothioamide], for which the activity at 10 µM is less than 200%. `CCCNC(=O)c1ccc2oc(-c3ccc(C)cc3)nc2c1` [Example 177, N-propyl-2-p-tolylbenzo[d]oxazole-5-carboxamide]: the activity at 10 µM is greater than 401%. Still for that read-out and setting: with `O=C(Nc1ccc2oc(-c3ccccc3)nc2c1)c1cc(Cl)cc(Cl)c1` [Example 30, 3,5-dichloro-N-(2-phenylbenzo[d]oxazol-5-yl)benzamide] the figure was less than 200%; with `O=C(c1ccccc1)c1ccc2nc(-c3ccccc3)[nH]c2c1` [Example 5, phenyl(2-phenyl-1H-benzo[d]imidazol-6-yl)methanone], less than 200%; with `CC(C)CN(CC(C)C)c1ccc2oc(-c3ccc(Cl)cc3)nc2c1` [Example 335, 2-(4-chlorophenyl)-N,N-diisobutylbenzo[d]oxazol-5-amine], less than 200%. Take `CC(C)C(=O)Nc1ccc2oc(-c3ccco3)nc2c1` [Example 419, N-(2-(furan-2-yl)benzo[d]oxazol-5-yl)isobutyramide]: the activity at 10 µM is greater than 401%.

Regarding `CN(C)c1ccc(-c2nc3cc(NC(=O)c4ccncc4)ccc3o2)cc1` [Example 1, N-(2-(4-(dimethylamino)phenyl)benzo[d]oxazol-5-yl)isonicotinamide], the activity at 10 µM was less than 200%. As to `CC(C)C(=O)Nc1ccc2oc(-c3cc(Cl)ccc3Cl)nc2c1` [Example 311, N-(2-(2,5-dichlorophenyl)benzo[d]oxazol-5-yl)isobutyramide], the activity at 10 µM was less than 200%. On the same count and under the same terms, with `CN(C)c1cccc(-c2nc3cc(N)ccc3o2)c1` [Example 197, 2-(3-(dimethylamino)phenyl)benzo[d]oxazol-5-amine] the figure was less than 200%; with `CC(C)C(=O)Nc1ccc2oc(-c3cccc(Cl)c3)nc2c1` [Example 231, N-(2-(3-chlorophenyl)benzo[d]oxazol-5-yl)isobutyramide], greater than 401%; with `CC(C)C(=O)Nc1ccc2oc(-c3ccc4ccccc4n3)nc2c1` [Example 416, N-(2-(quinolin-2-yl)benzo[d]oxazol-5-yl)isobutyramide], greater than 401%. For the compound `Cc1ccc(-c2nc3cc(N)ccc3o2)cc1` [Example 18, 2-p-tolylbenzo[d]oxazol-5-amine], the activity at 10 µM is less than 200%. Regarding `CNC(=O)c1ccc2oc(-c3ccc(Cl)cc3)nc2c1` [Example 279, 2-(4-chlorophenyl)-N-methylbenzo[d]oxazole-5-carboxamide], the activity at 10 µM fell in the range of 301 to 400%. As for `CCS(=O)(=O)c1ccc2oc(-c3ccc4cc(Br)ccc4c3)nc2c1` [Example 424, 2-(6-bromonaphthalen-2-yl)-5-(ethylsulfonyl)benzo[d]oxazole], the activity at 10 µM was less than 200%. With `O=C(Cc1ccccc1)Nc1ccc2oc(-c3ccccc3)nc2c1` [Example 33, 2-phenyl-N-(2-phenylbenzo[d]oxazol-5-yl)acetamide], the activity at 10 µM was less than 200%. With `Cc1ccc(CSc2nc3cc([N+](=O)[O-])ccc3o2)cc1` [Example 382, 2-(4-methylbenzylthio)-5-nitrobenzo[d]oxazole], the activity at 10 µM is less than 200%. For the compound `O=C(Cc1ccccc1)Nc1ccc2oc(-c3ccc(Cl)cc3)nc2c1` [Example 97, N-(2-(4-chlorophenyl)benzo[d]oxazol-5-yl)-2-phenylacetamide], the activity at 10 µM fell in the range of 201 to 300%.

As to `Nc1ccc(-c2ccc3oc(-c4ccc(Cl)cc4)nc3c2)cc1` [Example 329, 4-(2-(4-chlorophenyl)benzo[d]oxazol-5-yl)aniline], the activity at 10 µM is greater than 401%.

`CCS(=O)(=O)c1ccc2oc(-c3ccc4cc(F)ccc4c3)nc2c1` [Example 431, 5-(ethylsulfonyl)-2-(6-fluoronaphthalen-2-yl)benzo[d]oxazole]: the activity at 10 µM is less than 200%. Same read-out and setting: with `Cc1cc2nc(-c3ccc(Cl)cc3)oc2cc1C` [Example 222, 2-(4-chlorophenyl)-5,6-dimethylbenzo[d]oxazole] the figure was greater than 401%; with `CCCCC(=O)Nc1ccc2oc(-c3ccc(OC)cc3)nc2c1` [Example 138, N-(2-(4-methoxyphenyl)benzo[d]oxazol-5-yl)pentanamide], less than 200%. `Nc1ccc2oc(-c3ccc(C(F)(F)F)cc3)nc2c1` [Example 15, 2-(4-(trifluoromethyl)phenyl)benzo[d]oxazol-5-amine]: the activity at 10 µM is less than 200%. For the compound `CC(C)C(=O)Nc1ccc2sc(-c3ccccc3)nc2c1` [Example 267, N-(2-phenylbenzo[d]thiazol-5-yl)isobutyramide], the activity at 10 µM was greater than 401%.

With `Nc1ccc(-c2nc3ccc(Cl)cc3o2)cc1` [Example 290, 4-(6-chlorobenzo[d]oxazol-2-yl)aniline], the activity at 10 µM fell in the range of 301 to 400%.

In the case of `CCCC(=O)Nc1ccc2oc(Cc3ccccc3)nc2c1` [Example 227, N-(2-benzylbenzo[d]oxazol-5-yl)butyramide], the activity at 10 µM is less than 200%. For `CC(C)NC(=O)c1ccc2oc(-c3ccc(Cl)cc3)nc2c1` [Example 263, 2-(4-chlorophenyl)-N-isopropylbenzo[d]oxazole-5-carboxamide], the activity at 10 µM was 301 to 400%. As to `CC(C)C(=O)Nc1ccc2oc(-c3ccc(Cl)cc3)nc2c1` [Example 101, N-(2-(4-chlorophenyl)benzo[d]oxazol-5-yl)isobutyramide], the activity at 10 µM is greater than 401%. For the compound `Clc1ccc(-c2nc3cc(-c4ccc(Cl)nc4)ccc3o2)cc1` [Example 314, 2-(4-chlorophenyl)-5-(6-chloropyridin-3-yl)benzo[d]oxazole], the activity at 10 µM was less than 200%.

For `Cc1ccc(-c2nc3ccccc3o2)cc1` [Example 173, 2-p-tolylbenzo[d]oxazole], the activity at 10 µM lay within 301 to 400%. On the same count and under the same terms, with `CCS(=O)(=O)c1ccc2oc(-c3ccc(N)cc3O)nc2c1` [Example 447, 5-Amino-2-(5-(ethylsulfonyl)benzo[d]oxazol-2-yl)phenol] the figure was 201 to 300%; with `CCS(=O)(=O)c1ccc2oc(-c3cccc(Cl)c3)nc2c1` [Example 293, 2-(3-chlorophenyl)-5-(ethylsulfonyl)benzo[d]oxazole], greater than 401%; with `CC(C)C(=O)Nc1ccc2oc(-c3cccc(Cl)c3Cl)nc2c1` [Example 273, N-(2-(2,3-dichlorophenyl)benzo[d]oxazol-5-yl)isobutyramide], greater than 401%. As to `COc1ccc(-c2nc3cc(NC(=O)c4ccco4)ccc3o2)cc1` [Example 140, N-(2-(4-methoxyphenyl)benzo[d]oxazol-5-yl)furan-2-carboxamide], the activity at 10 µM is less than 200%.

The same assay, now with this note: luciferase reporter assay in murine H2K cells; classified relative to control.
Turning to `CC(C)c1ccc2oc(-c3ccc(N)cc3O)nc2c1` [Example 565], the Activity result is “+++ (Between 301% and 400% relative to control)”. Take `O=C(Nc1ccc(-c2nc3ccccc3[nH]2)cc1)c1ccc2c(c1)OCO2` [Example 540]: the Activity entry was “+ (Up to 200% relative to control)”. In the case of `CN(C)c1ccc(-c2nc3cc(N)ccc3o2)cc1` [Example 491], the Activity result was “++ (Between 201% and 300% relative to control)”. Take `COc1ccc(-c2nc3cc(NC(C)=O)ccc3o2)cc1Cl` [Example 519]: the Activity entry was “++ (Between 201% and 300% relative to control)”. As to `COc1ccc(-c2nc3ccccc3s2)cc1N` [Example 597], the Activity result is “+++ (Between 301% and 400% relative to control)”. Still for that read-out and setting: with `Cn1c(COc2ccccc2)nc2ccccc21` [Example 474] the entry was “+ (Up to 200% relative to control)”; with `Cn1c(-c2ccc(N)cc2)nc2cc(N)ccc21` [Example 490], “+ (Up to 200% relative to control)”; with `Cc1ccc2[nH]c(-c3sc4nc(C)ccc4c3N)nc2c1` [Example 632], “++++ (Above 401% relative to control)”. For `Nc1ccc2oc(-c3cccc4ccccc34)nc2c1` [Example 577], the Activity entry is “+ (Up to 200% relative to control)”.

The record behind these values is patent publication US8501713B2, “Drug combinations for the treatment of duchenne muscular dystrophy” (Summit Corporation PLC, priority 2007, dated 2013).
